The record followed here is ChEMBL document CHEMBL3046689, “Volatile aldehydes are promising broad-spectrum postharvest insecticides” (J Agric Food Chem, 2000).

Common to all, as to assay type: organism-based
Series [1] deals with Brassica oleracea var. italica. Nature of the series: Phytotoxicity in Brassica oleracea var. italica after compound application for 1 hr through two-tier reduced pressure fumigation at 30 mmHg for 0.5 hr and then 760 mmHg for 1.5 hr at 23 +/- 1 degC. To be noted: in vivo.
For series [2], the system named is Malus domestica. Nature of the series: Phytotoxicity in Malus x domestica (apple) assessed as induction of olfactory damage after compound application for 1 hr through two-tier reduced pressure fumigation at 30 mmHg for 0.5 hr and then 760 mmHg for 1.5 hr at 23 +/- 1 degC. Conditions: in vivo.
Series [3] concerns Citrus limon. Nature of the series: Phytotoxicity in Citrus limon (lemon) assessed as induction of visual damage after compound application for 1 hr through two-tier reduced pressure fumigation at 30 mmHg for 0.5 hr and then 760 mmHg for 1.5 hr at 23 +/- 1 degC. To be noted: citrus x limon, in vivo.
For series [4], the system named is Oryza sativa. In words: Phytotoxicity in Oryza sativa (rice) assessed as induction of visual damage after compound application for 1 hr through two-tier reduced pressure fumigation at 30 mmHg for 0.5 hr and then 760 mmHg for 1.5 hr at 23 +/- 1 degC. To be noted: in vivo.
In series [5] the test system is Brassica oleracea var. italica. In words: Phytotoxicity in Brassica oleracea var. italica assessed as induction of olfactory damage after compound application for 1 hr through two-tier reduced pressure fumigation at 30 mmHg for 0.5 hr and then 760 mmHg for 1.5 hr at 23 +/- 1 degC. To be noted: in vivo.
In series [6] the test system is Brassica oleracea var. capitata. Nature of the series: Phytotoxicity in Brassica oleracea var. capitata (cabbage) assessed as induction of visual damage after compound application for 1 hr through two-tier reduced pressure fumigation at 30 mmHg for 0.5 hr and then 760 mmHg for 1.5 hr at 23 +/- 1 degC. To be noted: in vivo.
Series [7] deals with Vitis vinifera. Nature of the series: Phytotoxicity in Vitis vinifera assessed as induction of olfactory damage after compound application for 1 hr through two-tier reduced pressure fumigation at 30 mmHg for 0.5 hr and then 760 mmHg for 1.5 hr at 23 +/- 1 degC. To be noted: in vivo.
The subject of series [8] is Lactuca sativa. In words: Phytotoxicity in naked Lactuca sativa (lettuce) assessed as residual aldehyde odor after compound application through two-tier reduced pressure fumigation at 30 mmHg for 0.5 hr and then 760 mmHg for 1.5 hr at 23 +/- 1 degC after 2 hr. To be noted: in vivo.
Series [9] has as its system Citrus limon. In words: Phytotoxicity in Citrus limon (lemon) assessed as induction of olfactory damage after compound application for 1 hr through two-tier reduced pressure fumigation at 30 mmHg for 0.5 hr and then 760 mmHg for 1.5 hr at 23 +/- 1 degC. To be noted: citrus x limon, in vivo.

`CCC=O` [PROPIONALDEHYDE]: the Activity result in series [1] is listed as “Toxic”; in [2], “Non-toxic”; in series [3] it was “Non-toxic”; in series [4], “Non-toxic”; in [5] it was “Toxic”; in [6], “Non-toxic”. The Activity entry in series [7] is listed as “Non-toxic”; in series [8] it was “Toxic”; in series [9] it was “Non-toxic”.
